Test results as given in publication PMC8634379, “From the Design to the In Vivo Evaluation of Benzohomoadamantane-Derived Soluble Epoxide Hydrolase Inhibitors for the Treatment of Acute Pancreatitis” (Journal of Medicinal Chemistry, 2021).

Experiments:
human sEH (hsEH) = molecular target: T1, human sEH (hsEH) (Homo sapiens, UniProt P34913); experiment: sEH inhibition, fluorescent-based assay (CMNPC substrate); type: biochemical; conditions: purified recombinant enzyme, average of three replicates
T1 sequence (P34913 1-555): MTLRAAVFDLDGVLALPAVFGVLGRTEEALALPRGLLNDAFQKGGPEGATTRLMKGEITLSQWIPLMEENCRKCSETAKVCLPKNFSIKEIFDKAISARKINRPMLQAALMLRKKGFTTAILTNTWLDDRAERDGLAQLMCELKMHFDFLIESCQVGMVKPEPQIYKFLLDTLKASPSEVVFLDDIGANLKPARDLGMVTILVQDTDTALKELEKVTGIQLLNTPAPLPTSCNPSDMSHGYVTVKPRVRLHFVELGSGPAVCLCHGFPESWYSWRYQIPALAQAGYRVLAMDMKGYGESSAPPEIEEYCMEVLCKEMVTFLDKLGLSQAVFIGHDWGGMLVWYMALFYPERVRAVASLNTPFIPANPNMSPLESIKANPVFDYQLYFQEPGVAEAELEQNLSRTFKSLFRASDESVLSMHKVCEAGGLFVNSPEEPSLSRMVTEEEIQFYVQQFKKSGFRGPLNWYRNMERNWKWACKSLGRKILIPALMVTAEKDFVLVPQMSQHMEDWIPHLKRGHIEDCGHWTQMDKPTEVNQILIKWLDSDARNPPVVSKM
Experimental: (§1) The IC50 values reported herein were determined using a fluorescent-based assay (CMNPC as substrate).[16] The fluorescent assay was used with purified recombinant human, mouse, or rat sEH proteins. The enzymes were incubated at 30 °C with the inhibitors ([I]final = 0.4–100,000 nM) for 5 min in 100 mM sodium phosphate buffer (200 μL, pH 7.4) containing 0.1 mg/mL of BSA and 1% of DMSO. The substrate (CMNPC) was then added ([S]final = 5 μM). […] Results were obtained by regression analysis from a linear region of the curve.

murine sEH = molecular target: T2, murine sEH (Mus musculus, UniProt P34914); experiment: as above; type: biochemical; conditions: purified recombinant enzyme, average of three replicates
T2 sequence (P34914 1-554): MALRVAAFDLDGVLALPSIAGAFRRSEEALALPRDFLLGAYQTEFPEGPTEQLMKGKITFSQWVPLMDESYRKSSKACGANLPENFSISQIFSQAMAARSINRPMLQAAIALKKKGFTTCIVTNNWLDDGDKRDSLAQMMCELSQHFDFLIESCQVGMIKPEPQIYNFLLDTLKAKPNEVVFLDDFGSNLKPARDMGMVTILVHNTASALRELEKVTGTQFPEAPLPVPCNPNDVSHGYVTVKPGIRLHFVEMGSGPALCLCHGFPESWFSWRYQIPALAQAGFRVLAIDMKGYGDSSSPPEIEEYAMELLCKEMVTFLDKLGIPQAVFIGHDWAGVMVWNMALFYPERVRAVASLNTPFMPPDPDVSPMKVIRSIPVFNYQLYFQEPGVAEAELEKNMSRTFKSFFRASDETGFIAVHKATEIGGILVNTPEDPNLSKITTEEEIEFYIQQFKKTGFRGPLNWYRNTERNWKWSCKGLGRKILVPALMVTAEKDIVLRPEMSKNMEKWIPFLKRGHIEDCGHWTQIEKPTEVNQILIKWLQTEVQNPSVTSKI
Experimental: as §1

rat sEH = molecular target: T3, rat sEH (Rattus norvegicus, UniProt P80299); experiment: as above; type: biochemical; conditions: purified recombinant enzyme, average of three replicates
T3 sequence (P80299 1-554): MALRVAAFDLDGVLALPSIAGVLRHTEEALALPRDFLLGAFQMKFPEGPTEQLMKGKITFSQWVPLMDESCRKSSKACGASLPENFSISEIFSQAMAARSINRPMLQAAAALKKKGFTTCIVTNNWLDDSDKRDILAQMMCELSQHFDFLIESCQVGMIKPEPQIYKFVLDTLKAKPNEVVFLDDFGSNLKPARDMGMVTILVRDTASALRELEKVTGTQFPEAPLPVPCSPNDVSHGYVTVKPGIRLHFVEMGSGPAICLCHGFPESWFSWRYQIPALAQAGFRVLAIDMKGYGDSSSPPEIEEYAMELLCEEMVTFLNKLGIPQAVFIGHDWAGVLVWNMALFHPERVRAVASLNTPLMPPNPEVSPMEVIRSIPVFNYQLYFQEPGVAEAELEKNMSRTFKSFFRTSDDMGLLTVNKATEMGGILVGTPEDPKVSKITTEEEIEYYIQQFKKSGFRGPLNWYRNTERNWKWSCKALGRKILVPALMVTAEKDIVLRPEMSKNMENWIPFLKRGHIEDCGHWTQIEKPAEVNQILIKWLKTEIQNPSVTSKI
Experimental: as §1

SH-SY5Y cells = experiment: Cytotoxicity by propidium iodide staining; type: cell-based; conditions: 100 μM, 24 h
Experimental: Cytotoxicity was evaluated in the human neuroblastoma SH-SY5Y cell line (ATCC number: CRL-2266). Cells were cultured in minimum essential medium/Ham’s-F12 (1:1, v/v) medium, supplemented with non-essential amino acids, 10% fetal bovine serum, 1 mM glutamine, and 50 μg/mL gentamycin (all reagents from Gibco, Invitrogen). For experiments, the cells were seeded at 3 × 10^5 cells/mL (100 μL/well) in 96-well plates (Nunc). After 24 h, the testing compounds were added concentrated to triplicate wells to obtain the final different concentrations up to 100 μM. Compounds were incubated for further 24 h. At termination, cytotoxicity was analyzed by the propidium iodide (PI) fluorescence stain assay. All compounds were tested in three independent experiments using different cell passages. The PI assay measures cell death. […]. The percentage of cell death induced by the treatments was calculated from the fluorescence of treated cells (Ft) relative to that of control cells (Fmin) and cells incubated with Triton X100 (Fmax) as the 0 and 100% cell death, respectively [% = ((Ft – Fmin)/(Fmax – Fmin)) × 100].

Row | SMILES | IC50 (human sEH (hsEH)) [nM] | IC50 (murine sEH) [nM] | IC50 (rat sEH) [nM] | cytotoxicity at the highest concentration tested (SH-SY5Y cells)
1 | CC12CC3CC(NC(=O)N[C@H]4CC[C@H](Oc5ccc(C(=O)O)cc5)CC4)(CC(C1)c1ccccc13)C2 [Compound 20, 4-[((1r,4r)-4-(3-(9-Methyl-5,6,8,9,10,11-Hexahydro-7H-5,9:7,11-dimethanobenzo[9]annulen-7-yl)ureido)cyclohexyl)oxy]benzoic Acid] | 0.9 | 9.9 | 0.4 | None of the compounds showed to be cytotoxic
2 | O=C(NC12CC3CC(Cl)(CC(C1)c1ccccc13)C2)N[C@H]1CC[C@H](Oc2ccc(C(=O)O)cc2)CC1 [Compound 22, 4-[((1r,4r)-4-(3-(9-Chloro-5,6,8,9,10,11-hexahydro-7H-5,9:7,11-dimethanobenzo[9]annulen-7-yl)ureido)cyclohexyl)oxy]benzoic Acid] |  |  |  | None of the compounds showed to be cytotoxic
3 | O=C(NC12CC3CC(F)(CC(C1)c1ccccc13)C2)N[C@H]1CC[C@H](Oc2ccc(C(=O)O)cc2)CC1 [Compound 23, 4-[((1r,4r)-4-(3-(9-Fluoro-5,6,8,9,10,11-hexahydro-7H-5,9:7,11-dimethanobenzo[9]annulen-7-yl)ureido)cyclohexyl)oxy]benzoic Acid] | 0.5 | 0.5 | 0.4 | None of the compounds showed to be cytotoxic
